The values below come from US20210252094A1, “COMPOSITION FOR IMPROVING SLEEP DISORDERS CAUSED BY CAFFEINE CONTAINING CITRUS RIND EXTRACT” (NOAHS CO., LTD., priority 2018, published 2021).

Entries after “also recorded” stand apart in the source; their conditions may differ. Some results are limits rather than exact numbers.

In this test the test system is brain hippocampal slices. In words: Measurement of neural activity of cultured hippocampal slices on microelectrode array (MEA), caffeine-induced. It counts as cell-based, Sprague Dawley white young rat. The following applies: for neural activity after washing: 1 mM caffeine plus sample (extract 400 μg/ml, hesperidin 40 μg/ml, narirutin 136 μg/ml), then washed 20 min with artificial cerebrospinal fluid only; for degree of neural activity compared to treatment of caffeine alone: perfused 20 min with 1 mM caffeine plus sample (citrus unshiu peel extract 400 μg/ml, hesperidin 40 μg/ml, narirutin 136 μg/ml), before washing. The text has this: A method of organotypic culturing of slices of the brain hippocampus using a thin film used an already commonly used method. Specifically, the brain hippocampus was extracted from a Sprague Dawley white young rat (Orientbio Co., Seungnam, Korea) of 5- to 7-day old, and sliced to a thickness of 350 μm using a tissue slicer (Mickle Laboratory Engineering Co., UK). After 5 to 6 slices were disposed into a thin film insert (Millicell-CM; Millipore, MA) with 0.4-μm holes, put in a 6-well plate (SPL Life Sciences Co., Korea), and then cultured in an incubator kept with 5% CO2 at 36° C. (Dong-A Co., Seoul, Korea). A culture solution (MEM; Welgene, Gyeongsan, South Korea), 20 mM HEPES (Sigma, St. Louis, Mo., USA), a 25% Hank's balanced salt solution (HBSS; Welgene, Gyeongsan, South Korea), 6 g/L D-glucose (Sigma, St. Louis, Mo., USA), 1 mM L-glutamine (Sigma, St. Louis, Mo., USA), 25% horse serum (Welgene, Gyeongsan, South Korea), and 1% penicillin-streptomycin (Gibco BRL, USA), pH=7.1) were changed once every two days, and the culture period was 12 to 14 days, and then used in a subsequent experiment (FIG. 5). After the cultured brain hippocampal slices were carefully isolated from the cultured thin film insert using a pin, the brain hippocampal slices were placed on a 8×8 microelectrode array (MEA; Multi Channel Systems, Germany) with a diameter of 10 μm and an interval of 100 μm coated with 0.01% polyethyleneimine (Sigma, St. Louis, Mo., USA). […] Thereafter, the MEA containing the brain hippocampus was mounted on an amplification device MEA1060 (Multi Channel Systems Inc., Reutlingen, Germany), and the artificial spinal cord solution in the MEA was grounded with Ag/AgCl. During the subsequent experiment, the artificial spinal cord solution into which the 5% CO2 and 95% 02 mixed gas was added was perfused at a rate of 3 mL/min, and the MEA and the artificial spinal cord solution were maintained at 33° C. (FIG. 6) . […] The MEA with the hippocampal tissue read data at a sampling rate of 25 kHz for each channel through a total of 60 channels, and was recorded through a computer using MC_Rack and MC_Data Tool (Multi Channel Systems, GmbH) software. A 4-stage band pass filter was used to extract meaningful spikes from all recorded signals, and Equation is as follows. Wherein, X represents a root mean square (RMS) for noise, and k is a factor that determines each threshold. Here, the threshold consisted of a total of three factors (0.6, 1 and 3). […] This process was performed using a MATLAB (Mathworks Inc., Natick, Massachusetts, USA) program for all 60 channels (FIG. 7).

For `Cn1c(=O)c2c(ncn2C)n(C)c1=O` [caffeine, 1,3,7-trimetnylxanthine], the “increase of neural activity after washing” value (1 mM caffeine alone, after washing) was no less than 200%.
In the case of `COc1ccc([C@@H]2CC(=O)c3c(O)cc(O[C@@H]4O[C@H](CO[C@@H]5O[C@@H](C)[C@H](O)[C@@H](O)[C@H]5O)[C@@H](O)[C@H](O)[C@H]4O)cc3O2)cc1O` [hesperidin], the “neural activity after washing” value is “maintained without a significant increase; also recorded: neural activity inhibitory effect persisted” and the “degree of neural activity compared to treatment of caffeine alone” value is “significantly reduced”.
Take `C[C@@H]1O[C@@H](OC[C@H]2O[C@@H](Oc3cc(O)c4c(c3)O[C@H](c3ccc(O)cc3)CC4=O)[C@H](O)[C@@H](O)[C@@H]2O)[C@H](O)[C@H](O)[C@H]1O` [narirutin]: the “neural activity after washing” value was “maintained without a significant increase; also recorded: neural activity inhibitory effect persisted” and the “degree of neural activity compared to treatment of caffeine alone” value is “significantly reduced”.
